Measurements published in patent US8354387B2, “Methods and compositions for delivering siRNA into mammalian cells” (Centre National de la Recherche Scientifique, priority 2004, dated 2013).

How the values were obtained:
[1] = tested on: human fibroblasts (Hs68) or HeLa cells; test: Delivery of pRL-SV40 luciferase plasmid with inhibitors of the endosomal pathway or at 4° C.; type: cell-based
Description: FIG. 1: MPG-mediated gene delivery in the presence of inhibitors of the endosomal pathway. A/ MPG/DNA complexes formed at a charge ratio of 5/1 with 100 ng pRL-SV40 plasmid encoding the reporter gene luciferase were overlaid onto human fibroblasts (Hs68) in the presence of either bafilomycin A (Baf-A: 150 nM), cytochalasin B (Cy-B: 50 μg/ml) or chloroquine (Chi: 100 μM). After 48 hrs cell extracts were prepared and luciferase activity was measured and reported as a function of total protein (black). Similar experiments were performed using a lipid-based delivery system, Lipofectamine™, as a control (white). Experiments in the absence of inhibitors were also performed using an MPG peptide lacking a C-terminal cysteamide group (grey). B/ A 36mer fluorescein labelled oligonucleotide was complexed with MPG at a charge ratio of 5/1. Complexes were then overlaid onto cultured Hela cells in the presence of bafilomycin A (middle panel) or cytochalasin B (bottom panel) and cellular localization of the oligonucleotide was monitored by fluorescence microscopy on living cells 1 hr after transfection. A control experiment with free oligonucleotide is shown in the top panel.
Hs68, Cos-7 and HeLa cell lines were cultured in Dulbecco's Modified Eagle's Medium supplemented with 2 mM glutamine, 1% antibiotics (streptomycin 10 000 μg/ml, penicillin, 10,000 IU/ml) and 10% (w/v) fetal calf serum (FCS) at 37° C. in a humidified atmosphere containing 5% CO2 as described previously (18). For MPG or MPG^ΔNLS-mediated gene delivery, peptide carrier/DNA complexes were formed in DMEM or PBS (500 μl of DMEM containing 100 ng of DNA complexed with MPG at a charge ratio 5:1) and incubated for 30 min at 37° C. Cells grown to 60% confluence were then overlaid with these preformed complexes. […]
For cell cycle-dependent studies, Hs68 fibroblasts were synchronized by serum deprivation for 40 hrs, then restimulated to enter the cycle and grow into early G1 for 4 hrs by addition of fresh DMEM supplemented with 20% FCS, and incubated in the presence of MPG/DNA complexes as described above. Luciferase activity was monitored as described previously (19) and control transfection experiments were performed using Lipofectamine™. […]
A plasmid encoding the reporter gene luciferase, pRL-SV40, was associated with MPG carrier at a charge ratio of 5:1 (MPG/DNA) and overlaid onto cultured human fibroblasts (Hs68) or HeLa cells in the presence of either bafilomycin A (150 nM), chloroquine (100 μM) or cytochalasin B (50 μg/ml). Transfection efficiency was monitored 30 hrs after transfection and Lipofectamine™ was used as a standard control method for transfection. […]

[2] = tested on: human breast cancer cell line MCF-7; test: Proliferation of MCF-7 cancer cells; type: cell-based; settings: controls, MCF-7, 8 days
Description: FIG. 7: Cyclin-B1 siRNA inhibits tumour growth. Exponentially MCF-7 growing cells (1-3 10^4) were incubated with different concentrations (10 nM, 50 nM, 100 nM) of siRNA or mismatched siRNA complexed or not with MPG (molecular ratio 1:10) and cell proliferation was assessed 8 days post incubation.
Cell culture, MPG mediated transfection. Adherent fibroblastic Hs68 (ATCC no CRL-1635), 293 (ATCC no CRL-1573), HeLa (ATCC no CCL-2) and MCF-7 (ATCC no HTB-22) cell lines were cultured in Dulbecco's Modified Eagle's Medium supplemented with […] glutamine, 1% antibiotics (streptomycin 10,000 μg/ml, penicillin, 10,000 IU/ml) and 10% (w/v) fetal calf serum (FCS), at 37° C. in a humidified atmosphere containing 5% CO2. For MPG-mediated delivery of siRNA, complexes were formed by incubation of different concentrations of siRNA from 10 nM to 1 μM with MPG at a molecular ratio of 1:10, respectively, in 500 μl of DMEM for 30 min at 37° C. Cells grown to 40 to 60% confluence were then overlaid with preformed complexes. After 30 min incubation at 37° C., 1 ml of fresh DMEM supplemented with 10% fetal calf serum was added directly to the cells, without removing the overlay of siRNA/MPG complexes, and cells were returned to the incubator. Different concentrations of siRNA or phosphorothioate oligonucleotide were transfected with cationic lipids, Lipofectamine or Oligofectamine (Invitrogen, Carlsbad, US), according to the guidelines of the manufacturer.
As delivery of siRNA directed against cyclin B1 promotes efficient downregulation of both cyclin B1 mRNA and protein levels, it was looked for to what extent this might affect proliferation of cancer cells. The effect of siRNA was investigated on the human breast cancer cell line MCF-7. Exponentially growing cells (1-3 10^4) were incubated with different concentrations (10 nM, 50 nM, 100 nM) of siRNA or mismatched siRNA complexed or not with MPG (molecular ratio 1:10) and cell proliferation was assessed 8 days post incubation (FIG. 7).

mammalian cells = settings: single- and double-stranded oligonucleotides; cited from earlier work
[3] = tested on: single- and double-stranded oligonucleotides (DNA); settings: cited from earlier work

GALFLGFLGAAGSTMGAWSQPKKKRKV (carrier peptide) [MPG, bipartite amphipathic peptide derived from fusion peptide domain of HIV-1 gp41 and NLS of SV40 large T antigen]
localization of fluorescently labelled oligonucleotide in presence of inhibitors ([1]; 36mer fluorescein oligonucleotide, charge ratio 5/1, Hela cells, after one hour): localized to the nucleus and to cytoplasm of the cells
increase of efficiency by chloroquine ([1]; chloroquine 100 μM, pRL-SV40): 10%
transfection efficiency in presence of bafilomycin A or cytochalasin B ([1]; pRL-SV40, charge ratio 5:1, bafilomycin A 150 nM, cytochalasin B 50 μg/ml): not affected
reduction of transfection efficiency at 4° C. ([1]; transfection performed at 4° C.): 12 fold
effect on cell proliferation [2]: neither free siRNA or scrambled molecules, or the peptide carrier alone affected cell proliferation
time to deliver oligonucleotides into mammalian cells (mammalian cells): < 1 h
affinity for single-stranded relative to double-stranded oligonucleotides [3]: at least 2 fold
